Experimental data as given in patent US20150246025A1, “2-PHENYL-5-HETEROCYCLYL-TETRAHYDRO-2H-PYRAN-3-AMINE COMPOUNDS FOR USE IN THE TREATMENT OF DIABETES AND ITS ASSOCIATED DISORDERS” (CADILA HEALTHCARE LIMITED, priority 2012, published 2015).

Legend:
C57BL/6J mice = assay: In vivo antihyperglycaemic/antidiabetic activity (OGTT), acute single dose 120-min time-course; details: Mus musculus, 2 h; male C57BL/6J mice, acute single dose 0,3 mg/kg po, 120-min time-course, n = 6, Mean ± SEM; read-out: In vivo OGTT C57; % Glucose change
Protocol: Acute single dose 120-min time-course experiments were carried out in male C57BL/6J mice, age 8-12 weeks, bred in-house. Animals were housed in groups of 6 animals per cage, for a week, in order to habituate them to vivarium conditions (25±4° C., 60-65% relative humidity, 12: 12 h light: dark cycle, with lights on at 7.30 am). All the animal experiments were carried out according to the internationally valid guidelines following approval by the ‘Zydus Research Center animal ethical committee’.
The in-vivo glucose lowering properties of the test compounds were evaluated in C57BL/6J (mild hyperglycemic) animal models as described below. Two days prior to the study, the animals were randomized and divided into groups (n=6), based upon their fed glucose levels. On the day of experiment, food was withdrawn from all the cages, water was given ad-libitum and were kept for overnight fasting. Vehicle (normal saline)/test compounds were administered orally, on a body weight basis. Soon after the 0 min. blood collection from each animal, the subsequent blood collections were done at 30, 60 and 120 or upto 240 min., via retro-orbital route, under light ether anesthesia (Diabetes Obesity Metabolism, 7, 307, 2005; Diabetes, 52, 751, 2003).
Blood samples were centrifuged and the separated serum was immediately subjected for the glucose estimation. Serum for insulin estimation was stored at −70° C. until used for the insulin estimation. The glucose estimation was carried out with DPEC-GOD/POD method (Ranbaxy Fine Chemicals Limited, Diagnostic division, India), using Spectramax-190, in 96-microwell plate reader (Molecular devices Corporation, Sunnyvale, Calif.). […] The AUC and BCAUC obtained from graphs were analyzed for one way ANOVA, followed by Dunnett's post test, using Graph Pad prism software.

DPP-IV enzyme = molecular target: T1, DPP-IV enzyme (Homo sapiens, UniProt P27487); assay: In vitro DPP-IV inhibitory activity using enzymatic (fluorescence-based) assay; assay type: biochemical; details: soluble human DPP-IV, H-Gly-Pro-AMC 200 μM, pH 7.8, 25° C., 30 min; read-out: % In-vitro DPPIV Inhibition IC50
T1 construct: soluble human proteins (DPP-IV enzyme) produced in a baculovirus expression system; made in house; host or cells: baculovirus expression system (Life Technologies)
T1 sequence (P27487 39-766 limits assumed): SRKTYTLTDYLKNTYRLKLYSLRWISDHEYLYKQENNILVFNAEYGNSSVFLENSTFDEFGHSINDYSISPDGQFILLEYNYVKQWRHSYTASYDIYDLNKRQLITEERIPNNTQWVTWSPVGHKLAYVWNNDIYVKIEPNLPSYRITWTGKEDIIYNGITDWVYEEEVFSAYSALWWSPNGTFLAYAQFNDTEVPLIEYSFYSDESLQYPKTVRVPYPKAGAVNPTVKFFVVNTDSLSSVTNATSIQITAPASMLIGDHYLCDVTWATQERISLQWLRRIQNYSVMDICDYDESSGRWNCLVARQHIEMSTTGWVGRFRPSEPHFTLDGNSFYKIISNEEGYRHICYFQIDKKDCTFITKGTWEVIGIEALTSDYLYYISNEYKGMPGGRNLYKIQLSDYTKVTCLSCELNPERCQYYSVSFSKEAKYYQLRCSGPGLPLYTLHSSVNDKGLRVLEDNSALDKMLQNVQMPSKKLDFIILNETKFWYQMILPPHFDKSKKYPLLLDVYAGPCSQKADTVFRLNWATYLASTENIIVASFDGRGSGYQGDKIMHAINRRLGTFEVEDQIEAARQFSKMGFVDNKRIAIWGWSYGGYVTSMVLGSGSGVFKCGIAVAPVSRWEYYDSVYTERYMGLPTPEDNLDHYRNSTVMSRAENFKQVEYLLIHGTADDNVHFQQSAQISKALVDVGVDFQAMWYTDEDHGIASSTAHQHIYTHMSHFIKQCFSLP
Protocol: In Vitro DPP-IV Inhibitory Activity Using Enzymatic Assay:
In vitro enzyme (DPP-IV) inhibitory activity was determined using fluorescence-based assay (Anal. Biochem., 200, 352, 1992). The Gly-Pro-AMC was used as a substrate (which is cleaved by the enzymes to release the fluorescent AMC) and soluble human proteins (DPP-IV enzyme) produced in a baculovirus expression system (Life Technologies) was used as the enzyme source. The H-Gly-Pro-AMC (200 μM) was incubated with DPP-IV enzyme in the presence of various concentrations (30 & 100 nM) of test compounds. Reaction was carried out at pH 7.8 (HEPES buffer 25 mM containing 1.0% BSA, 140 mM NaCl, 16 mM MgCl2, 2.8% DMSO) in a total volume of 100 μl at 25° C. for 30 min., in the dark. Reaction was terminated with acetic acid (25 μl of 25% solution). Activity (fluorescence) was measured using Spectra Max fluorometer (Molecular Devices, Sunnyvale Calif.) by exciting at 380 nm and emission at 460 nm.

SMILES | IC50 (DPP-IV enzyme) [nM] | change in vivo at 0.3 mg/kg (C57BL/6J mice) [%]
N[C@H]1C[C@@H](N2CC3CNCC3C2)CO[C@@H]1c1cc(F)ccc1F (stereo partly drawn) [Compound 4, (2R,3S,5R)-2-(2,5-difluorophenyl)-5-(hexahydropyrrolo[3,4-c]pyrrol-2(1H)-yl)tetrahydro-2H-pyran-3-amine] | < 100 | -16.5 ± 3.8
N[C@H]1C[C@@H](N2CC3CN(S(=O)(=O)C(F)(F)F)CC3C2)CO[C@@H]1c1cc(F)ccc1F (stereo partly drawn) [Compound 5, (2R,3S,5R)-2-(2,5-difluorophenyl)-5-(5-((trifluoromethyl)sulfonyl)hexahydropyrrolo[3,4-c]pyrrol-2(1H)-yl)tetrahydro-2H-pyran-3-amine] | < 100 | -7.6 ± 1.3
N[C@H]1C[C@@H](N2CC3CN(S(=O)(=O)c4ccccc4)CC3C2)CO[C@@H]1c1cc(F)ccc1F (stereo partly drawn) [Compound 6, (2R,3S,5R)-2-(2,5-difluorophenyl)-5-(5-(phenylsulfonyl)hexahydropyrrolo[3,4-c]pyrrol-2(1H)-yl)tetrahydro-2H-pyran-3-amine] | < 100 | -7.3 ± 1.6
N[C@H]1C[C@@H](N2CC3C(=O)N(C4CC4)C(=O)C3C2)CO[C@@H]1c1cc(F)ccc1F (stereo partly drawn) [Compound 10, 5-((3R,5S,6R)-5-amino-6-(2,5-difluorophenyl)tetrahydro-2H-pyran-3-yl)-2-cyclopropyltetrahydropyrrolo[3,4-c]pyrrole-1,3(2H,3aH)-dione] | < 100 | -12.5 ± 1.3
N[C@H]1C[C@@H](N2CC3C(=O)N(Cc4ccccc4)C(=O)C3C2)CO[C@@H]1c1cc(F)ccc1F (stereo partly drawn) [Compound 11, 5-((3R,5S,6R)-5-amino-6-(2,5-difluorophenyl)tetrahydro-2H-pyran-3-yl)-2-benzyltetrahydropyrrolo[3,4-c]pyrrole-1,3(2H,3aH)-dione] | < 100 | -25.6 ± 3.2
CS(=O)(=O)N1CCC2CN([C@H]3CO[C@H](c4cc(F)ccc4F)[C@@H](N)C3)CC2C1 (stereo partly drawn) [Compound 12, (2R,3S,5R)-2-(2,5-difluorophenyl)-5-(5-(methylsulfonyl)hexahydro-1H-pyrrolo[3,4-c]pyridin-2(3H)-yl)tetrahydro-2H-pyran-3-amine] | < 100 | -9.8 ± 1.5
CS(=O)(=O)N1CCC2(CCN([C@H]3CO[C@H](c4cc(F)ccc4F)[C@@H](N)C3)C2)CC1 [Compound 14, (2R,3S,5R)-2-(2,5-difluorophenyl)-5-(8-(methylsulfonyl)-2,8-diazaspiro[4.5]decan-2-yl)tetrahydro-2H-pyran-3-amine] | < 100 | -14.2 ± 3.4
CS(=O)(=O)N1CCC2CN([C@H]3CO[C@H](c4cc(F)ccc4F)[C@@H](N)C3)CC21 (stereo partly drawn) [Compound 15, (2R,3S,5R)-2-(2,5-difluorophenyl)-5-(1-(methylsulfonyl)hexahydropyrrolo[3,4-b]pyrrol-5(1H)-yl)tetrahydro-2H-pyran-3-amine] | < 100 | -42 ± 1.8
CS(=O)(=O)N1CC2CCN([C@H]3CO[C@H](c4cc(F)ccc4F)[C@@H](N)C3)C2C1 (stereo partly drawn) [Compound 16, (2R,3S,5R)-2-(2,5-difluorophenyl)-5-(5-(methylsulfonyl)hexahydropyrrolo[3,4-b]pyrrol-1(2H)-yl)tetrahydro-2H-pyran-3-amine] | < 100 | -29.4 ± 6.8
N[C@H]1C[C@@H](N2CC3CN(Cc4ccccc4)CC3C2)CO[C@@H]1c1cc(F)ccc1F (stereo partly drawn) [Compound 18, (2R,3S,5R)-5-(5-benzylhexahydropyrrolo[3,4-c]pyrrol-2(1H)-yl)-2-(2,5-difluorophenyl)tetrahydro-2H-pyran-3-amine] | < 100 | -12.6 ± 4
CS(=O)(=O)N1C[C@H]2CN([C@H]3CO[C@H](c4cc(F)ccc4F)[C@@H](N)C3)C[C@H]21 [Compound 19, (2R,3S,5R)-2-(2,5-difluorophenyl)-5-((1R,5S)-6-(methylsulfonyl)-3,6-diazabicyclo[3.2.0]heptan-3-yl)tetrahydro-2H-pyran-3-amine] | < 100 | -20.6 ± 3
CS(=O)(=O)N1C[C@H]2CN([C@H]3CO[C@H](c4cc(F)ccc4F)[C@@H](N)C3)[C@H]2C1 [Compound 20, (2R,3S,5R)-2-(2,5-difluorophenyl)-5-((1R,5R)-3-(methylsulfonyl)-3,6-diazabicyclo[3.2.0]heptan-6-yl)tetrahydro-2H-pyran-3-amine] | < 100 | -8.4 ± 1.7
CS(=O)(=O)NC1CC2CN([C@H]3CO[C@H](c4cc(F)ccc4F)[C@@H](N)C3)CC2C1 (stereo partly drawn) [Compound 21, N-(2-((3R,5S,6R)-5-amino-6-(2,5-difluorophenyl)tetrahydro-2H-pyran-3-yl)octahydrocyclopenta[c]pyrrol-5-yl)methanesulfonamide] | < 100 | -15 ± 4

Continued, in another order:

IC50 (DPP-IV enzyme) [nM] | SMILES | change in vivo at 0.3 mg/kg (C57BL/6J mice) [%]
< 10 | CS(=O)(=O)N1CCC2(CCN([C@H]3CO[C@H](c4cc(F)ccc4F)[C@@H](N)C3)C2)C1 (stereo partly drawn) [Compound 2, (2R,3S,5R)-2-(2,5-difluorophenyl)-5-(7-(methylsulfonyl)-2,7-diazaspiro[4.4]-nonan-2-yl)tetrahydro-2H-pyran-3-amine] | -25.7 ± 1.8
< 10 | CN(C)S(=O)(=O)N1CC2CN([C@H]3CO[C@H](c4cc(F)ccc4F)[C@@H](N)C3)CC2C1 (stereo partly drawn) [Compound 7, 5-((3R,5S,6R)-5-amino-6-(2,5-difluorophenyl)tetrahydro-2H-pyran-3-yl)-N,N-dimethylhexahydropyrrolo[3,4-c]pyrrole-2(1H)-sulfonamide] | -7.9 ± 1.2
< 10 | CN(C)S(=O)(=O)N1CC2=C(CN([C@H]3CO[C@H](c4cc(F)ccc4F)[C@@H](N)C3)C2)C1 [Compound 9, 5-((3R,5S,6R)-5-amino-6-(2,5-difluorophenyl)tetrahydro-2H-pyran-3-yl)-N,N-dimethyl-3,4,5,6-tetrahydropyrrolo[3,4-c]pyrrole-2(1H)-sulfonamide] | -34.7 ± 4.4
< 10 | CS(=O)(=O)N1CC2CCN([C@H]3CO[C@H](c4cc(F)ccc4F)[C@@H](N)C3)CC2C1 (stereo partly drawn) [Compound 13, (2R,3S,5R)-2-(2,5-difluorophenyl)-5-(2-(methylsulfonyl)hexahydro-1H-pyrrolo[3,4-c]pyridin-5(6H)-yl)tetrahydro-2H-pyran-3-amine] | -26.4 ± 1.6
< 30 | N[C@H]1C[C@@H](N2CC3=C(CN(C(=O)C4CC4)C3)C2)CO[C@@H]1c1cc(F)ccc1F [Compound 22, (2R,3S,5R)-5-(5-(cyclopropanecarbonyl)-5,6-dihydropyrrolo[3,4-c]pyrrol-2(1H,3H,4H)-yl)-2-(2,5-difluorophenyl)tetrahydro-2H-pyran-3-amine] | -25.1 ± 2
< 30 | N[C@H]1C[C@@H](N2CC3=C(CN(C(=O)c4ccccc4)C3)C2)CO[C@@H]1c1cc(F)ccc1F [Compound 23, (5-((3R,5S,6R)-5-amino-6-(2,5-difluorophenyl)tetrahydro-2H-pyran-3-yl)-5,6-dihydropyrrolo[3,4-c]pyrrol-2(1H,3H,4H)-yl)(phenyl)methanone] | -22 ± 1.2
< 30 | CC(C)C(=O)N1CC2=C(C1)CN([C@H]1CO[C@H](c3cc(F)ccc3F)[C@@H](N)C1)C2 [Compound 24, 1-(5-((3R,5S,6R)-5-amino-6-(2,5-difluorophenyl)tetrahydro-2H-pyran-3-yl)-5,6-dihydropyrrolo[3,4-c]pyrrol-2(1H,3H,4H)-yl)-2-methylpropan-1-one] | -18.9 ± 5.7
< 10 | Cc1ccc(S(=O)(=O)N=S(C)(=O)N2CC3=C(CN([C@H]4CO[C@H](c5cc(F)ccc5F)[C@@H](N)C4)C3)C2)cc1 (stereo partly drawn) [Compound 49, (2R,3S,5R)-2-(2,5-difluorophenyl)-5-(5-(N-(4-methylbenzenesulfonyl)-S-methylsulfonimidoyl)-5,6-dihydropyrrolo[3,4-c]pyrrol-2(1H,3H,4H)-yl)tetrahydro-2H-pyran-3-amine] | 
